In patent US20070219234A1, “Thienopyridine Derivatives” (priority 2004, published 2007) one finds activity and melting point data, which are given here for 25 compounds.

Molecules are shown by their SMILES.

For one data set, the system named is ST2 cells. Briefly: Osteoblast differentiation test (alkaline phosphatase activity). Particulars: Mus musculus, ST-2, 96 h; at 0.03 μg/mL; culturing for four days; control group (0.1% DMSO) = 100%; read-out: alkaline phosphatase activity increase rate. Format: cell-based. The method, then:
ST2 cells (available from Institute of Physical and Chemical Research) which are stroma cells derived from mouse marrow were used. In this test, α-MEM medium (available from GIBCO BRL Cat. No. 10370-021) with which 10% (v/v) inactivated fetal bovine serum (available from Hyclone Company, FBS) and 1% (v/v) Penicillin-Streptomycin, Liquid (available from GIBCO BRL Cat. No. 15140-122) are mixed (hereinbelow abbreviated as 10% -FBS-αMEM) was used. Every culture in this test was conducted in a CO2 incubator (37° C., 95% humidity, 5% CO2).
The cells mentioned above were harvested with 2 mL of 0.25% trypsin solution (available from GIBCO BRL Cat. No. 15050-065) and after they were dispersed by adding 10 mL of 10% -FBS-αMEM, the cells were collected by centrifugal separation (25° C., 800 rpm, 5 minutes). A cell suspension containing 40,000 cells/mL was prepared from the collected cells using 10% -FBS-αMEM.
The cell suspension was dispensed to the wells of a 96 well microplate (Falcon company) in an amount of 100 μL per well so as to achieve 4,000 cells/well and cultured for 24 hours. Compounds were dispensed to the wells in final concentrations of 0.01, 0.03, 0.1, 0.3 μg/ml except the following control group. DMSO was dispensed to the wells of the control group in a final concentration of 0.1% (v/v). Alkaline phosphatase (ALP) activity was measured for each group after culturing for four days.
The measurement of ALP activity was performed as follows. That is, after the whole medium was removed from each well of the culturing plate, each well was washed twice by dispensing and removing 100 μL of Dulbecco's phosphate buffer (available from GIBCO BRL Cat. No. 14190-144). Cell lysing solution containing 10 mM MgCl2 and 2%(v/v) TritonX-100 (Sigma company) was prepared and 50 μL/well of the cell lysing solution was dispensed and the mixture was stirred at room temperature for five minutes. An ALP substrate solution containing 50 mM of diethanolamine (Wako Pure Chemical Industries, Ltd. Cat. No. 099-03112) and 20 mM of […] (Wako Pure Chemical Industries, Ltd. Cat. No. 147-02343) was prepared and 50 μL/well of the ALP substrate solution was dispensed and after allowing to stand at room temperature for 10 minutes, absorbance was measured using a microplate reader (Bio-rad company). Alkaline phosphatase activity increase rate (%) in the group blended with test compounds was calculated assuming the observed value of the control group of each plate to be 100% and evaluated as the osteoblast differentiation promoting activity.

As a reminder, the melting point is the temperature, or range, at which the solid turns liquid. As to `NC(=O)c1sc2nccc(N3CC[C@@H]4CCCC[C@@H]4C3)c2c1N` (relative stereo) [Example 29, 3-amino-4-(cis-perhydroisoquinolin-2-yl)thieno[2,3-b]pyridine-2-carboxamide], the melting point was in the range of 224 to 226 °C. The activity at 0.03 µg/mL in the data set on ST2 cells was greater than 150%.

`NC(=O)c1sc2nccc(N3CCCCC3)c2c1N` [Example 14, 3-amino-4-piperidin-1-ylthieno[2,3-b]pyridine-2-carboxamide] came in with a melting point of 191 to 192 °C. Besides, in the data set with ST2 cells, the activity at 0.03 µg/mL was greater than 150%.

In the case of `CC1CCCN(c2ccnc3sc(C(N)=O)c(N)c23)C1` (stereo not shown) [Example 16, 3-amino-4-(3-methylpiperidin-1-yl)thieno[2,3-b]pyridine-2-carboxamide], the melting point lay within 201 to 204 °C. Besides, in the data set on ST2 cells, the activity at 0.03 µg/mL is greater than 150%.

Take `NC(=O)c1sc2nccc(N3CCCC(CO)C3)c2c1N` (stereo not shown) [Example 17, 3-amino-4-[3-(hydroxymethyl)piperidin-1-yl]thieno[2,3-b]pyridine-2-carboxamide]: the melting point lay in the range of 125 to 130 °C. In the data set on ST2 cells, the activity at 0.03 µg/mL is greater than 150%.

For the compound `NC(=O)c1sc2nccc(N3CCSCC3)c2c1N` [Example 24, 3-amino-4-thiomorpholin-4-ylthieno[2,3-b]pyridine-2-carboxamide], the melting point fell in the range of 255 to 258 °C. Moreover, the activity at 0.03 µg/mL in the data set on ST2 cells was greater than 150%.

For the compound `COc1ccc(N2CCCN(c3ccnc4sc(C(N)=O)c(N)c34)CC2)cc1` [Example 58, 3-amino-4-[4-(4-methoxyphenyl)-1,4-diazepan-1-yl]thieno[2,3-b]pyridine-2-carboxamide], the melting point lay within 206 to 208 °C. Also, the activity at 0.03 µg/mL with ST2 cells is greater than 150%.

In turn, `NC(=O)c1sc2nccc(N3CCCN(c4ccc([N+](=O)[O-])cc4)CC3)c2c1N` [Example 59, 3-amino-4-[4-(4-nitrophenyl)-1,4-diazepan-1-yl]thieno[2,3-b]pyridine-2-carboxamide] showed a melting point of 244 to 248 °C. The activity at 0.03 µg/mL with ST2 cells was greater than 150%.

In turn, `CSc1ccc(N2CCCN(c3ccnc4sc(C(N)=O)c(N)c34)CC2)cc1` [Example 64, 3-amino-4-{4-[4-(methylthio)phenyl]-1,4-diazepan-1-yl}thieno[2,3-b]pyridine-2-carboxamide] came in with a melting point of 186 to 188 °C. In addition, the activity at 0.03 µg/mL in the data set with ST2 cells is greater than 150%.

Take `COc1cccc(N2CCCN(c3ccnc4sc(C(N)=O)c(N)c34)CC2)c1` [Example 68, 3-amino-4-[4-(3-methoxyphenyl)-1,4-diazepan-1-yl]thieno[2,3-b]pyridine-2-carboxamide]: the melting point was in the range of 193 to 195 °C. In the data set with ST2 cells, the activity at 0.03 µg/mL is greater than 150%.

In turn, `CN(C)c1ccc(N2CCCN(c3ccnc4sc(C(N)=O)c(N)c34)CC2)cc1` [Example 74, 3-amino-4-{4-[4-(dimethylamino)phenyl]-1,4-diazepan-1-yl}thieno[2,3-b]pyridine-2-carboxamide] came in with a melting point of 174 to 176 °C. In addition, the activity at 0.03 µg/mL in the data set on ST2 cells is greater than 150%.

With `NC(=O)c1sc2nccc(N3CCCN(c4ccc(F)cc4)CC3)c2c1N` [Example 76, 3-amino-4-[4-(4-fluorophenyl)-1,4-diazepan-1-yl]thieno[2,3-b]pyridine-2-carboxamide], the melting point was in the range of 203 to 205 °C. Further, the activity at 0.03 µg/mL in the data set on ST2 cells was greater than 150%.

For `Cc1ccc(N2CCCN(c3ccnc4sc(C(N)=O)c(N)c34)CC2)cc1` [Example 77, 3-amino-4-[4-(4-methylphenyl)-1,4-diazepan-1-yl]thieno[2,3-b]pyridine-2-carboxamide], the melting point lay in the range of 175 to 176 °C. Also, in the data set with ST2 cells, the activity at 0.03 µg/mL is greater than 150%.

In the case of `Cc1ccc(N2CCCN(c3ccnc4sc(C(N)=O)c(N)c34)CC2)cc1C` [Example 84, 3-amino-4-[4-(3,4-dimethylphenyl)-1,4-diazepan-1-yl]thieno[2,3-b]pyridine-2-carboxamide], the melting point was in the range of 195 to 197 °C. For the same compound, the activity at 0.03 µg/mL in the data set with ST2 cells is greater than 150%.

`CCc1ccc(N2CCCN(c3ccnc4sc(C(N)=O)c(N)c34)CC2)cc1` [Example 93, 3-amino-4-[4-(4-ethylphenyl)-1,4-diazepan-1-yl]thieno[2,3-b]pyridine-2-carboxamide] gave a melting point of 186 to 188 °C. In the data set on ST2 cells, the activity at 0.03 µg/mL was greater than 150%.

In the case of `NC(=O)c1sc2nccc(N3CCCN(c4cccnc4)CC3)c2c1N` [Example 96, 3-amino-4-(4-pyridin-3-yl-1,4-diazepan-1-yl)thieno[2,3-b]pyridine-2-carboxamide], in the data set on ST2 cells, the activity at 0.03 µg/mL was greater than 150%.

The compound `COc1ccc(N2CCCN(c3ccnc4sc(C(N)=O)c(N)c34)CC2)cn1` [Example 98, 3-amino-4-[4-(6-methoxypyridin-3-yl)-1,4-diazepan-1-yl]thieno[2,3-b]pyridine-2-carboxamide] had a melting point of 170 to 172 °C. Also, the activity at 0.03 µg/mL in the data set with ST2 cells is greater than 150%.

In the case of `CS(=O)(=O)N1CCCN(c2ccnc3sc(C(N)=O)c(N)c23)CC1` [Example 104, 3-amino-4-[4-(methylsulfonyl)-1,4-diazepan-1-yl]thieno[2,3-b]pyridine-2-carboxamide], the melting point is 214 to 217 °C.

`NC(=O)c1sc2nccc(N3CCCN(c4ccc(Cl)nn4)CC3)c2c1N` [Example 105, 3-amino-4-[4-(6-chloropyridazin-3-yl)-1,4-diazepan-1-yl]thieno[2,3-b]pyridine-2-carboxamide] displayed a melting point of 232 to 234 °C.

`COc1ccnc2sc(C(N)=O)c(N)c12` [Example 107, 3-amino-4-methoxythieno[2,3-b]pyridine-2-carboxamide] gave a melting point of 238 to 241 °C.

Compound `CCOc1ccnc2sc(C(N)=O)c(N)c12` [Example 108, 3-amino-4-ethoxythieno[2,3-b]pyridine-2-carboxamide] came in with a melting point of 241 to 243 °C.

The compound `NC(=O)c1sc2nccc(OCc3ccccc3)c2c1N` [Example 110, 3-amino-4-(benzyloxy)thieno[2,3-b]pyridine-2-carboxamide] yielded a melting point of 216 to 221 °C.

On to `CC(C)Oc1ccnc2sc(C(N)=O)c(N)c12` [Example 111, 3-amino-4-isopropoxythieno[2,3-b]pyridine-2-carboxamide], for which the melting point is 238 to 240 °C (dec.).

Consider `NC(=O)c1sc2nccc(OC3CCCCCC3)c2c1N` [Example 112, 3-amino-4-(cycloheptyloxy)thieno[2,3-b]pyridine-2-carboxamide], for which the melting point was in the range of 179 to 180 °C.

For `CCSc1ccnc2sc(C(N)=O)c(N)c12` [Example 114, 3-amino-4-(ethylthio)thieno[2,3-b]pyridine-2-carboxamide], the melting point was 230 to 235 °C.

Compound `NC(=O)c1sc2nccc(SC3CCCCC3)c2c1N` [Example 115, 3-amino-4-(cyclohexylthio)thieno[2,3-b]pyridine-2-carboxamide] had a melting point of 195 to 197 °C.
